Test results taken from ChEMBL document CHEMBL1158713, “Anthecotulide: purification, analytical data, absence from chamomile preparations, stability and reactivity, and anti-infective testing” (J Nat Prod, 2005).
Calls of active or inactive are those of the source.

Legend:
Assay type in all cases: functional, organism-based
Staphylococcus aureus [1] = assay: Antimicrobial activity against Staphylococcus aureus at < 10 ug/ml
Enterococcus faecalis = assay: Antimicrobial activity against Enterococcus faecalis at < 10 ug/ml
Escherichia coli = assay: Antimicrobial activity against Escherichia coli at < 10 ug/ml
Pseudomonas aeruginosa = assay: Antimicrobial activity against Pseudomonas aeruginosa at < 10 ug/ml
Staphylococcus aureus [2] = assay: Antimicrobial activity against methicillin-resistant Staphylococcus aureus at < 10 ug/ml
Enterococcus faecium = assay: Antimicrobial activity against vancomycin-resistant Enterococcus faecium at < 10 ug/ml

Measured: Activity

C=C1C(=O)OCC1C/C=C(\C)CC(=O)C=C(C)C (stereo unspecified)
inactive: all assays above
